Source: patent US5614533A, “Substituted pipecolinic acid derivatives as HIV protease inhibitors” (Bio-Mega/Boehringer Ingelheim Research, Inc., priority 1994, dated 1997)

Key:
HIV protease = target: T1, HIV protease (Human immunodeficiency virus type 1 group M subtype B, UniProt P04585); assay: Recombinant HIV Protease HPLC Assay; type: biochemical; conditions: 37°, 30 min, pH 5.5
T1 construct: HIV protease was expressed in E. coli; made in house; host or cells: E. coli (plasmid pBRT1 prt+)
From the text: The procedure is based on the capacity of the test compound to inhibit enzymatic cleavage by HIV protease of a decapeptide (the substrate) having an amino acid sequence which includes a known HIV protease cleavage site of a HIV polyprotein; see H. G. Krausslich et al., Proc. Natl. Acad. Sci. USA, 86, 807 (1989). Details of this assay together with the results obtained for exemplified compounds of formula 1 are described in the examples hereinafter.
Recombinant HIV Protease HPLC Assay:
Enzyme: HIV protease was expressed in E. coli {construct pBRT1 prt^+, see W. G. Farmerie et al., Science, 236, 305 (1987)}, according to the following protocol:
E. coli cells containing the pBRT1 prt^+ plasmid were used to inoculate a seed culture media composed of Luria-Bertani Broth containing 100 μg/mL of ampicillin. Flasks were incubated at 37° under agitation for 17 h. Production flasks containing sterile M9 broth, supplemented with 100 μg/mL of ampicillin, were inoculated at a level of 1% (v/v) using the seed culture described above. Total volume in each production flask was 500 mL in a 2 L Erlenmeyer flask. Flasks were incubated at 37° under agitation until a cell concentration corresponding to an optical density ([…]) of 0.6 was reached (no dilution). This time span was routinely 3-4 h. Flasks were then supplemented with 5 mM isopropylthiogalactoside (IPTG, Research Organics, Cleveland, Ohio, USA) and incubation was continued until the cell concentration reached an optical density of 0.2 at 16-fold dilution. Flasks were then supplemented with 1 mM phenylmethylsulfonyl fluoride (PMSF) and rapidly chilled to 4°. The bacterial cells were recovered by centrifugation at 4°. The wet pellet was stored at -70°.
All steps below were performed at 4° unless otherwise indicated. Thawed cells were mixed with buffer A {50 mM tris(hydroxymethyl)[…] HCl (Tris-HCl, pH 7.4); 0.6 mM ethylenediaminetetraacetic acid (EDTA); 0.375M NaCl, 0.2% Nonidet P-40® (BDH Chemicals Ltd., Poole, UK); 1 mM PMSF}, at a ratio of one part cells to nine parts buffer A. Diatomaceous earth (Celite 545®, John Manville, Lompoc, Calif. USA) was added at a ratio of two parts to one part of wet cell weight. The resulting slurry was homogenized at high speed (ca. 20,000 rpm) on a Waring® industrial blender for 8×15 sec. pulses. Cell debris/Celite® was collected by centrifugation and the resulting pellet was extracted with 4.5 parts of buffer A to one part wet solids using the homogenization procedure described above. Supernatants from both homogenization steps were combined and soluble protein was precipitated by the addition of solid (NH4)2 SO4 to yield a final concentration of 75% saturation. This mixture was agitated for 60 min and the precipitate was recovered by centrifugation. The resulting pellet was suspended in buffer B {50 mM Tris-HCl, pH 8; 30 mM NaCl; 1 mM DL-dithiothreitol (DTT); 1 mM EDTA; 1 mM PMSF; 10% glycerol}, and dialyzed for 18 h against the same buffer.
An aliquot of the dialyzed extract containing 150 mg of the protein was loaded onto a Sephadex A25® anion exchange column (Pharmacia, Uppsala, Sweden) with bed dimensions of 70 cm length and 2.5 cm diameter. The sample was eluted isocratically with buffer B at a linear flow rate of 10 cm/h. Fractions containing HIV protease activity (see below for assay description) were combined, and soluble protein was precipitated by the addition of saturated aqueous (NH4)2 SO4 to yield a total (NH4)2 SO4 concentration of 85% saturation. Precipitated protein was removed by centrifugation and the resulting pellet was dissolved in buffer C {50 mM 2-(4-morpholino)ethanesulfonic acid (MES), pH 5.5; 150 mM NaCl; 1 mM DTT; 1 mM EDTA; 10% glycerol}. This preparation was dialyzed for 18 h against buffer C, and then frozen at -70°. All crude extracts were purified by chromatography in aliquots containing 150 mg of protein in the same manner as described above. […]

[1] = system: HIV (H9/HTLV-IIIB) in C8166 cells; assay: plaque assay: inhibition of syncytia formation in HIV-infected C8166 cells; type: cell-based; conditions: Human immunodeficiency virus 1, IIIB, Table IV, 72 h, 50% inhibition of syncytia formation
From the text: Typical of such procedures are those described by S. Harada and N. Yamamoto, Jpn. J. Cancer Res. (Gann), 76, 432 (1985), and S. Harada et al., Science, 229, 563 (1985). An assay based on the latter procedures is described in the examples hereinafter.
The following protocol, used for screening antiviral effects of the compounds of formula 1, is adapted from a plaque assay utilizing HTLV-I transformed cells, previously reported by Harada et al., supra. HTLV-I transformed cells are used because of the rapidity with which HIV will replicate in the cells.
1. The test compound is dissolved in dimethylsulfoxide to a concentration of 5 mg/mL. The resultant solution can be stored at 4° until use.
2. The resultant solution is diluted in RPMI 1640 (Gibco Laboratories, St. Lawrence, Mass., USA) to four times (4×) the final concentration which is to be tested. Once diluted in RPMI 1640, the solution is used in the cell culture assay within 4 h.
3. The 4× solution (50 μL) is added to triplicate wells of a 96 well flat bottomed microtiter plate. RPMI (50 μL) also is added to control wells.
4. C8166 cells (5×10^4) in 50 μL of HEPES-buffered RPMI 1640 (pH=7.2), 10% heat inactivated fetal calf serum (FCS), […] gentamicin (complete media) are added to all wells.
5. Fifty times TCID50 of H9/HTLV-IIIB stock (stored in liquid nitrogen as cell culture supernatant in 50% FCS) in 100 μL of complete media is added to all wells. Infectious titer of virus stocks are as previously determined by end point dilution on C8166 cells. Titer of stocks are stable for 6-12 months when stored at -193°.
6. Microtiter plates are then placed on level shelves of a 37°, 5% CO2 humidified incubator for 72 h.
7. Plates are then removed and centers of syncytia are counted in each well by low power phase contrast light microscopy. […] Control wells should have between 25 and 75 centers of syncytia per well.
8. Percent inhibition of syncytia formation is calculated by the formula: [formula]
The concentration of the test compound which causes a 50% inhibition of syncytia formation, i.e. the EC50, is determined by using the technique of serial dilution of the working solution at step 3 and by using non-linear regression analysis (SAS® program) to graphically plot the observed percent inhibition of syncytia formation against the various concentrations of the test compound.

Structure (SMILES) | IC50 (HIV protease; Table IV) [nM] | EC50 [1] [nM] | IC50 (HIV protease; Table VII) [nM]
CC(C)(C)NC(=O)[C@@H]1C[C@H](Sc2ccccc2)CCN1C[C@@H](O)[C@H](Cc1ccc(F)cc1)NC(=O)OCc1ccccc1 [Table IV, entry 1, N-tert-butyl-1-{3(S)-(benzyloxycarbonylamino)-2(R)-hydroxy-4-(4-fluorophenyl)butyl}-4(R)-(phenylthio)piperidine-2(S)-carboxamide] | 9.5 | – | –
CC(C)(C)NC(=O)[C@@H]1C[C@H](c2ccccc2)CCN1C[C@@H](O)[C@H](Cc1ccccc1)NC(=O)OCc1ccccc1 [Table IV, entry 2, N-tert-butyl-1-{3(S)-(benzyloxycarbonylamino)-2(R)-hydroxy-4-phenylbutyl}-4(R)-phenylpiperidine-2(S)-carboxamide] | 400 | – | –
CC(C)(C)NC(=O)[C@@H]1C[C@H](Cc2ccccc2)CCN1C[C@@H](O)[C@H](Cc1ccccc1)NC(=O)OCc1ccccc1 [Table IV, entry 3, N-tert-butyl-1-{3(S)-(benzyloxycarbonylamino)-2(R)-hydroxy-4-phenylbutyl}-4(R)-benzylpiperidine-2(S)-carboxamide] | 460 | – | –
CC(C)(C)NC(=O)[C@@H]1C[C@H](S(=O)(=O)c2ccccc2)CCN1C[C@@H](O)[C@H](Cc1ccccc1)NC(=O)OCc1ccccc1 [Table IV, entry 4, N-tert-butyl-1-{3(S)-(benzyloxycarbonylamino)-2(R)-hydroxy-4-phenylbutyl}-4(R)-(phenylsulfonyl)piperidine-2(S)-carboxamide] | 30 | 1400 | –
CC(C)(C)NC(=O)[C@@H]1C[C@H](Sc2ccccc2)CCN1C[C@@H](O)[C@H](Cc1ccccc1)NC(=O)OCc1ccccc1 [Table IV, entry 5, N-tert-butyl-1-{3(S)-(benzyloxycarbonylamino)-2(R)-hydroxy-4-phenylbutyl}-4(R)-(phenylthio)piperidine-2(S)-carboxamide] | – | 800 | –
CC(C)(C)NC(=O)[C@@H]1C[C@H](Oc2ccccc2)CCN1C[C@@H](O)[C@H](Cc1ccccc1)NC(=O)OCc1ccccc1 [Table IV, entry 6, N-tert-butyl-1-{3(S)-(benzyloxycarbonylamino)-2(R)-hydroxy-4-phenylbutyl}-4(R)-phenoxypiperidine-2(S)-carboxamide] | 53 | – | –
CC(C)(C)NC(=O)[C@@H]1C[C@H](C2CCCCC2)CCN1C[C@@H](O)[C@H](Cc1ccccc1)NC(=O)OCc1ccccc1 [Table IV, entry 7, N-tert-butyl-1-{3(S)-(benzyloxycarbonylamino)-2(R)-hydroxy-4-phenylbutyl}-4(R)-cylohexylpiperidine-2(S)-carboxamide] | 2100 | – | –
CC(C)[C@H](NC(=O)OCc1ccccc1)C(=O)N[C@@H](Cc1ccccc1)[C@H](O)CN1CC[C@@H](Sc2ccccc2)C[C@H]1C(=O)NC(C)(C)C [Table IV, entry 8] | 3.9 | 13 | –
CC(C)(C)NC(=O)[C@@H]1C[C@H](Sc2ccccc2)CCN1C[C@@H](O)[C@H](Cc1ccccc1)NC(=O)[C@H](CC(N)=O)NC(=O)OCc1ccccc1 [Table IV, entry 9, N-tert-butyl-1-{3(S)-{{N-(benzyloxycarbonyl)asparaginyl}amino}-2(R)-hydroxy-4-phenylbutyl}-4(R)-(phenylthio)piperidine-2(S)-carboxamide] | 4 | 43 | –
CC(C)[C@H](NC(=O)OCc1ccccc1)C(=O)N[C@@H](Cc1ccccc1)[C@H](O)CN1CC[C@@H](c2ccccc2)C[C@H]1C(=O)NC(C)(C)C [Table IV, entry 10, N-tert-butyl-1-{3(S)-{{N-(benzyloxycarbonyl)valyl}amino}-2(R)-hydroxy-4-phenylbutyl}-4(R)-phenylpiperidine-2(S)-carboxamide] | 3.1 | 90 | –
CC[C@H](C)[C@H](NC(=O)OCc1ccccc1)C(=O)N[C@@H](Cc1ccccc1)[C@H](O)CN1CC[C@@H](c2ccccc2)C[C@H]1C(=O)NC(C)(C)C [Table IV, entry 11, N-tert-butyl-1-{3(S)-{{N-(benzyloxycarbonyl)isoleucyl}amino}-2(R)-hydroxy-4-phenylbutyl}-4(R)-phenylpiperidine-2(S)-carboxamide] | 3.7 | 700 | –
CC(C)[C@H](NC(=O)OCc1ccccc1)C(=O)N[C@@H](Cc1ccccc1)[C@H](O)CN1CC[C@@H](Sc2ccccn2)C[C@H]1C(=O)NC(C)(C)C [Table IV, entry 33, N-tert-butyl-1-{3(S)-{{N-(benzyloxycarbonyl)valyl}amino}-2(R)-hydroxy-4-phenylbutyl}-4(R)-(2-pyridinylthio)piperidine-2(S)-carboxamide] | 3.2 | – | –
CC(C)[C@H](NC(=O)OCc1ccccc1)C(=O)N[C@@H](Cc1ccccc1)[C@H](O)CN1CC[C@@H](Sc2ccncc2)C[C@H]1C(=O)NC(C)(C)C [Table IV, entry 34, N-tert-butyl-1-{3(S)-{{N-(benzyloxycarbonyl)valyl}amino}-2(R)-hydroxy-4-phenylbutyl}-4(R)-(4-pyridinylthio)piperidine-2(S)-carboxamide] | 2.5 | – | –
CC(C)(C)NC(=O)[C@@H]1C[C@H](Sc2ccncc2)CCN1C[C@@H](O)[C@H](Cc1ccccc1)NC(=O)COc1ccccc1 [Table VII, entry 3, N-tert-butyl-1-{3(S)-{{phenoxyacetyl}amino}-2(R)-hydroxy-4-phenylbutyl}-4(R)-(4-pyridinylthio)piperidine-2(S)-carboxamide] | – | – | 34
Cc1ccc(F)cc1C(=O)N[C@@H](Cc1ccccc1)[C@H](O)CN1CC[C@@H](Sc2ccncc2)C[C@H]1C(=O)NC(C)(C)C [Table VII, entry 9, N-tert-butyl-1-{3(S)-{{(5-fluoro-2-methylphenyl)carbonyl}amino}-2(R)-hydroxy-4-phenylbutyl}-4(R)-(4-pyridinylthio)piperidine-2(S)-carboxamide] | – | – | 6.8
